Tests used:
[1] = Selectivity for human CCR2 over IKr
[2] = molecular target: C-C chemokine receptor type 2 (Homo sapiens, UniProt P41597); test: Displacement of [125I]MCP1 from CCR2 receptor in human monocytes; format: cell-based
[3] = molecular target: Voltage-gated inwardly rectifying potassium channel KCNH2 (Homo sapiens, UniProt Q12809); test: Displacement of [[…]]MK499 from human ERG expressed in HEK cells; format: cell-based, HEK293
[4] = molecular target: C-C chemokine receptor type 5 (Homo sapiens) (UniProt P51681); test: Inhibition of CCR5 at 1 uM; set-up: scale not given: the % may be the effect or the level left
[5] = Oral bioavailability in rat at 3 mg/kg; format: ADME, organism-based; conditions: in vivo
[6] = Clearance in rat at 3 mg/kg, po; format: ADME, organism-based; set-up: dose 3 mg/kg, route oral; conditions: in vivo
[7] = Half life in rat at 3 mg/kg, po; format: ADME, organism-based; set-up: dose 3 mg/kg, route oral; conditions: in vivo

Sequence of C-C chemokine receptor type 5 (Homo sapiens) (P51681 whole entry, looked up): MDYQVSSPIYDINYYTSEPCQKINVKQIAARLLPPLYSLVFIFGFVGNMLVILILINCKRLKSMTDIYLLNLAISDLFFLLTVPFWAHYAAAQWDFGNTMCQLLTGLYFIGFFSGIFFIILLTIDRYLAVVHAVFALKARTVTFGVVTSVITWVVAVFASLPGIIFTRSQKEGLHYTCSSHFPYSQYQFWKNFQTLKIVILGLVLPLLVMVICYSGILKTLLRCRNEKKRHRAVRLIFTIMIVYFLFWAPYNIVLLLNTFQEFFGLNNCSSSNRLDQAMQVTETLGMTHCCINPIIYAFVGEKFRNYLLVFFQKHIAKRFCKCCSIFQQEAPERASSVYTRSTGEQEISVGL
Sequence of C-C chemokine receptor type 2 (P41597 whole entry): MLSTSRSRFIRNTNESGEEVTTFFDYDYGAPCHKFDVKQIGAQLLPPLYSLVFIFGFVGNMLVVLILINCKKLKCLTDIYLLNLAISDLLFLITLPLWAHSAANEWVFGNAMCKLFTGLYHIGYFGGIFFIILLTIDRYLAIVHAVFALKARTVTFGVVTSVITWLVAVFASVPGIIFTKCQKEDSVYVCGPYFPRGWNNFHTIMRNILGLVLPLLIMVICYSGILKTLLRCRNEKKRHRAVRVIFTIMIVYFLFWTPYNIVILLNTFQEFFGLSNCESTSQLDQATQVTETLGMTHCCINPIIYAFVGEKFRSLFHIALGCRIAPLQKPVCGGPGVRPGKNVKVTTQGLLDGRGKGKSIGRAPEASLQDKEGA
Sequence of Voltage-gated inwardly rectifying potassium channel KCNH2 (Q12809 whole entry): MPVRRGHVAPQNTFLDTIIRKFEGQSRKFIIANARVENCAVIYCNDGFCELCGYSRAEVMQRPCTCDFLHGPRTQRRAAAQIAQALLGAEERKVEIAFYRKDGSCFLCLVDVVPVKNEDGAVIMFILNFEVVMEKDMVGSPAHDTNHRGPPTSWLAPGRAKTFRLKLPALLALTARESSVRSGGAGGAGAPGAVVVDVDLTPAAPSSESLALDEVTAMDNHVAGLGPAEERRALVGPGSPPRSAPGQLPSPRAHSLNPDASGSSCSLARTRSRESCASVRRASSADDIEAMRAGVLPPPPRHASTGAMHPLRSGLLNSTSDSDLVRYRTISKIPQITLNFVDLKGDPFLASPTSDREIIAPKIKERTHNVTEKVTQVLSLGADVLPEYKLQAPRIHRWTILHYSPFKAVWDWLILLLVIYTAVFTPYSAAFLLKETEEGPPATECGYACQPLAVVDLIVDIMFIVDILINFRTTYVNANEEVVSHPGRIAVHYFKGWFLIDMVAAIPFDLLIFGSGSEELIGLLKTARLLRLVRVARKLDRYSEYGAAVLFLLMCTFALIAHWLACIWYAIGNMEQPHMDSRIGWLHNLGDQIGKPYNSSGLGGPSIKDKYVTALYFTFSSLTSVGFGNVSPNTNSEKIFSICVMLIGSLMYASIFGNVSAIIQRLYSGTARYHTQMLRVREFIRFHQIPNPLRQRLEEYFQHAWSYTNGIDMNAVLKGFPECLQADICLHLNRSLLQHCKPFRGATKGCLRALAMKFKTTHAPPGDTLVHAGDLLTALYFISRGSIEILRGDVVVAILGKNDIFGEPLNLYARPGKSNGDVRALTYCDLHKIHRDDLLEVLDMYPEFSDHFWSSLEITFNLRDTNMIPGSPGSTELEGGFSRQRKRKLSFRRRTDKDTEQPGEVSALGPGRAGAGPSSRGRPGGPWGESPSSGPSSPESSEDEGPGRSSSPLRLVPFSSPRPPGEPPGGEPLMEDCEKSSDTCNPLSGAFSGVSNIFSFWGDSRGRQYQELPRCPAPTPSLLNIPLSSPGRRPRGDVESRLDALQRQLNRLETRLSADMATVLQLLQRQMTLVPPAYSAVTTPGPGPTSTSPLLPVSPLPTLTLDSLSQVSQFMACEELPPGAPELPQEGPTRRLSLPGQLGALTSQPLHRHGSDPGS

SMILES	IC50 [2]	IKr IC50/CCR2 IC50 ratio [1]	IC50 [3]	other results
CC(C)[C@]1(C(=O)NCc2cc(C(F)(F)F)cc(C(F)(F)F)c2)CC[C@@H](N2CCC(c3cncnc3)CC2)C1 [listing 1 of 2 here]	0.005 µM	–	–	–
CC(C)[C@]1(C(=O)NCc2cc(C(F)(F)F)cc(C(F)(F)F)c2)CC[C@@H](N2CCC(c3ccc(F)cc3)CC2)C1	0.003 µM	5	0.016 µM	Activity [4]: 69%
CC(C)(O)[C@]1(C(=O)NCc2cc(C(F)(F)F)cc(C(F)(F)F)c2)CC[C@@H](N2CCC(c3ccc(F)cc3)CC2)C1	0.0013 µM	42	0.054 µM	Activity [4]: 69%
CC(C)(O)[C@]1(C(=O)NCc2cc(C(F)(F)F)cc(C(F)(F)F)c2)CC[C@@H](N2CCC(c3cncnc3)CC2)C1	0.006 µM	–	–	Activity [4]: 3%
CC(C)[C@]1(C(=O)NCc2cc(C(F)(F)F)cc(C(F)(F)F)c2)CC[C@@H](N2CCC(c3cncnc3)CC2)C1 [listing 2 of 2 here]	–	–	–	Activity [4]: 3%
CC(C)[C@]1(C(=O)NCc2cc(C(F)(F)F)cc(C(F)(F)F)c2)CC[C@@H](N2CCC(c3cncnc3)CC2)C1 (relative stereo)	0.012 µM	–	–	bioavailability [5]: 33%; CL/F [6]: 7 mL/min/kg; half-life [7]: 3.8 h
CC(C)[C@]1(C(=O)NCc2cc(C(F)(F)F)cc(C(F)(F)F)c2)CC[C@@H](N2CCC(c3ccncn3)CC2)C1 (single isomer, unassigned)	0.044 µM	3	0.13 µM	–
CC(C)[C@]1(C(=O)NCc2cc(C(F)(F)F)cc(C(F)(F)F)c2)CC[C@@H](N2CCC(c3ccc(Cl)nn3)CC2)C1 (single isomer, unassigned)	0.165 µM	–	–	–
CC(C)[C@]1(C(=O)NCc2cc(C(F)(F)F)cc(C(F)(F)F)c2)CC[C@@H](N2CCC(c3cccnn3)CC2)C1 (single isomer, unassigned)	0.05 µM	–	–	–
CC(C)[C@]1(C(=O)NCc2cc(C(F)(F)F)cc(C(F)(F)F)c2)CC[C@@H](N2CCC(c3ccnnc3)CC2)C1 (single isomer, unassigned)	0.064 µM	–	–	–
CC(C)[C@]1(C(=O)NCc2cc(C(F)(F)F)cc(C(F)(F)F)c2)CC[C@@H](N2CCC(c3ncccn3)CC2)C1 (single isomer, unassigned)	0.144 µM	–	–	–

Now from value to compound, other results behind:

IC50 [2]	SMILES	IKr IC50/CCR2 IC50 ratio [1]	IC50 [3]	other results
0.062 µM	CC(C)[C@]1(C(=O)NCc2cc(C(F)(F)F)cc(C(F)(F)F)c2)CC[C@@H](N2CCC(c3cccc(C(=O)O)c3)CC2)C1	45	2.79 µM	–
0.006 µM	CC(C)[C@]1(C(=O)NCc2cc(C(F)(F)F)cc(C(F)(F)F)c2)CC[C@@H](N2CCC(c3cccnc3)CC2)C1 (relative stereo)	–	–	–
0.006 µM	CC(C)[C@]1(C(=O)NCc2cc(C(F)(F)F)cc(C(F)(F)F)c2)CC[C@@H](N2CCC(c3cccc(O)c3)CC2)C1 (single isomer, unassigned)	11	0.067 µM	–
0.041 µM	CC(C)[C@]1(C(=O)NCc2cc(C(F)(F)F)cc(C(F)(F)F)c2)CC[C@@H](N2CCC(c3cccc(C(=O)O)c3)CC2)C1 (single isomer, unassigned)	15	0.6 µM	–
0.004 µM	CC(C)[C@]1(C(=O)NCc2cc(C(F)(F)F)cc(C(F)(F)F)c2)CC[C@@H](N2CCC(c3cccc(F)c3)CC2)C1 (single isomer, unassigned)	–	–	–
0.006 µM	COc1cccc(C2CCN([C@@H]3CC[C@@](C(=O)NCc4cc(C(F)(F)F)cc(C(F)(F)F)c4)(C(C)C)C3)CC2)c1 (single isomer, unassigned)	36	0.217 µM	–
